From patent publication US20110230493A1, “1-OXA-8-Azaspiro [4,5] Decabe-8-Carboxamide Compounds as FAAH Inhibitors” (Pfizer Inc., priority 2008, published 2011)

Legend:
human FAAH = target: T1, human FAAH (Homo sapiens, UniProt O00519); assay: FAAH assay, human FAAH enzyme inactivation (kinact/Ki); format: biochemical; conditions: pH 7.4, in vitro, oleamide 50 μM, 30° C., read-out: hFAAH kinact/Ki
T1 construct: made in house; host or cells: E. coli
T1 sequence (O00519 1-579): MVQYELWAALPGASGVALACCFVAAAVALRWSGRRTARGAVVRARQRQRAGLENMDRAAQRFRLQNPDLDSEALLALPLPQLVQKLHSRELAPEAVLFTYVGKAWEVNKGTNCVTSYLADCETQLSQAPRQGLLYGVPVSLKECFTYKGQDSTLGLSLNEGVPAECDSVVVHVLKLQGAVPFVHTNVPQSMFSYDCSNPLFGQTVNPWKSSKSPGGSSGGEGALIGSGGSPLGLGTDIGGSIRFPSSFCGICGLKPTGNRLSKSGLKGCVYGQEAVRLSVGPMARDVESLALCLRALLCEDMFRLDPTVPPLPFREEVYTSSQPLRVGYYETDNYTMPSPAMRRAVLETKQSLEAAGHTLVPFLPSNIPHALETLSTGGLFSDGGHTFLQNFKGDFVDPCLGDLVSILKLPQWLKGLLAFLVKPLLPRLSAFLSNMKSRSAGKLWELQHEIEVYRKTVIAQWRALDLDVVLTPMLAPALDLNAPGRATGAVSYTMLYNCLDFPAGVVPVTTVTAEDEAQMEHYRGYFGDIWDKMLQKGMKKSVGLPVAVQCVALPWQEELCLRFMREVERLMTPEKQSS
Description: (§1) The FAAH assay was carried out in 384-well clear polystyrene plates (Evergreen Scientific) in a total volume of 50 μl per well in a manner similar to that described by Mileni et al., Proc. Nat. Acad. Sci. 2008, 105, 12820-12824. All percents are by volume. Serial dilutions of compound were initially prepared in 100% DMSO, and then diluted two-fold into HPLC-grade H2O to give 50% DMSO. To each well, was placed the reaction mixture (40 μl) containing 1-4 nM FAAH, 50 mM NaPi, pH 7.4, 3 mM α-ketoglutarate, 0.15 mM NADH, 7.5 U/ml glutamate dehydrogenase, 2 mM ADP, 1 mM EDTA, and 0.1% Triton X-100 (The concentration shown for each component is the final concentration in the assay). To this mixture, was added 5 μl of a compound of Examples 1 to 101 at various concentrations in 50% DMSO (or 5 μl 50% DMSO for controls). This was immediately followed by the addition of 5 μl oleamide (500 μM) dissolved in 75% EtOH/25% DMSO and the reaction mixture was mixed for 1.5 min. The final concentrations of DMSO and EtOH in the assay were each 7.5%. The reactions were incubated at 30° C. and the absorbance at 340 nm was collected over a period of 90 min with readings taken in 30-second intervals using SpectraMax Plus^384 Microplate Spectrophotometer (Molecular Devices, Sunnyvale, Calif.). The human FAAH and rat FAAH used in the assay was prepared as described in the patent application WO 2006/067613 using wild-type E. coli cells transformed in St. Louis, Mo., U.S.A. The purity of the enzyme was greater than 98% based on an analysis by SDS-polyacrylamide gel electrophoresis followed by Coomassie Blue staining.
(§2) Reaction progress curves were corrected for the non-enzymatic oxidation of NADH by subtraction of absorbancies at each time point obtained from control reactions containing no FAAH enzyme. The loss of enzyme activity as a function of time is well-described by the following mathematical equation (1) for a mono-exponential decay: […]
(§3) where At represents the absorbance at time t, A0 represents the absorbance at time zero, and C represents a constant. Observed rates of enzyme inactivation (kobs) were determined from the non-linear reaction progress curves by fitting the corrected absorbancies to an equation for a mono-exponential decay using the third-party Microsoft Excel plug-in, XLfit (IDBS Limited). Secondary plots of kobs vs. inhibitor concentration were prepared from kobs values obtained from progress curves. Second-order rates for enzyme inactivation, expressed as kinact/Ki (M^−1 s^−1), were calculated from the slopes from linear regression analysis of the secondary plot of kobs vs. inhibitor concentration as defined in following equation (2), where [I]<<Ki:
(§4) The concentration of substrate in the assay was equal to the Km for oleamide of 50 μM. Therefore, reported kinact/Ki values are obtained by multiplying resulting slopes by a factor of two (i.e. slope=kinact/(Ki*2)).
(§5) Table 1, below, lists human FAAH (hFAAH) and rat FAAH (rFAAH) enzyme inhibition values for Examples 1-101 as a ratio of kinact/Ki (M^−1 s^−1).

rat FAAH = target: T2, rat FAAH (Rattus norvegicus, UniProt P97612); assay: FAAH assay, rat FAAH enzyme inactivation (kinact/Ki); format: biochemical; conditions: pH 7.4, in vitro, oleamide 50 μM, 30° C., read-out: rFAAH kinact/Ki
T2 construct: made in house; host or cells: E. coli
T2 sequence (P97612 1-579): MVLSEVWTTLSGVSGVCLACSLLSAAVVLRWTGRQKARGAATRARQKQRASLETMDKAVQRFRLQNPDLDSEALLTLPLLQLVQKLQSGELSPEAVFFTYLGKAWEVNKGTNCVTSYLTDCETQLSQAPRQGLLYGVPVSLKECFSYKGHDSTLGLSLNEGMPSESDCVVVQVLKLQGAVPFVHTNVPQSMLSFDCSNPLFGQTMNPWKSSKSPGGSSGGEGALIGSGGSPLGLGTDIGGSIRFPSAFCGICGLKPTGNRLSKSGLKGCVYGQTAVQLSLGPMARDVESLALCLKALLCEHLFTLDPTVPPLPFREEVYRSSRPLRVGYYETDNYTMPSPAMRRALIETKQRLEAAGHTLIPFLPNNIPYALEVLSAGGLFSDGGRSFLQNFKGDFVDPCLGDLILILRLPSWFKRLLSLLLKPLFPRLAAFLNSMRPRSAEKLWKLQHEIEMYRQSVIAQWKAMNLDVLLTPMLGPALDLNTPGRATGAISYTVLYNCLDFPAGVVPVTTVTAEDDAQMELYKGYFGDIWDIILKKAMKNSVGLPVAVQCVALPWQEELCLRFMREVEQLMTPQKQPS
Description: as §1, §2, §3, §4, §5

Row | kinact/KI (human FAAH) [M⁻¹ s⁻¹] | kinact/KI (rat FAAH) [M⁻¹ s⁻¹] | SMILES
1 | 2110 | 3230 | Cc1noc(NC(=O)N2CCC3(CC2)CC(c2ccc(OCc4cccc(C(F)(F)F)n4)cc2)CO3)c1C (racemic) [Example 29, (3RS)-N-(3,4-dimethylisoxazol-5-yl)-3-(4-{[6-(trifluoromethyl)pyridin-2-yl]methoxy}phenyl)-1-oxa-8-azaspiro[4.5]decane-8-carboxamide]
2 | 7380 | 5800 | Cc1noc(NC(=O)N2CCC3(CC2)CC(c2ccc(OCc4ccc(F)c(F)c4)cc2)CO3)c1C (racemic) [Example 30, (3RS)-3-{4-[(3,4-difluorobenzyl)oxy]phenyl}-N-(3,4-dimethylisoxazol-5-yl)-1-oxa-8-azaspiro[4.5]decane-8-carboxamide]
3 | 3580 | 3220 | Cc1noc(NC(=O)N2CCC3(CC2)CC(c2ccc(OCc4cc(F)ccc4F)cc2)CO3)c1C (racemic) [Example 31, (3RS)-3-{4-[(2,5-difluorobenzyl)oxy]phenyl}-N-(3,4-dimethylisoxazol-5-yl)-1-oxa-8-azaspiro[4.5]decane-8-carboxamide]
4 | 4120 | 7580 | Cc1noc(NC(=O)N2CCC3(CC2)CC(c2ccc(OCc4ccc(C(F)(F)F)cn4)cc2)CO3)c1C (racemic) [Example 32, (3RS)-N-(3,4-dimethylisoxazol-5-yl)-3-(4-{[5-(trifluoromethyl)pyridin-2-yl]methoxy}phenyl)-1-oxa-8-azaspiro[4.5]decane-8-carboxamide]

Further lines, the compound ahead of its results:

Row | SMILES | kinact/KI (human FAAH) [M⁻¹ s⁻¹] | kinact/KI (rat FAAH) [M⁻¹ s⁻¹]
5 | Cc1noc(NC(=O)N2CCC3(CC2)CC(c2ccc(F)c(Cl)c2)CO3)c1C (racemic) [Example 28, (3RS)-3-(3-chloro-4-fluorophenyl)-N-(3,4-dimethylisoxazol-5-yl)-1-oxa-8-azaspiro[4.5]decane-8-carboxamide] | 1580 | 3950
6 | Cc1noc(NC(=O)N2CCC3(CC2)CC(c2cccc(-c4ccc(F)c(F)c4)c2)CO3)c1C (racemic) [Example 53, (3RS)-3-(3′,4′-difluorobiphenyl-3-yl)-N-(3,4-dimethylisoxazol-5-yl)-1-oxa-8-azaspiro[4.5]decane-8-carboxamide] | 2020 | 1470
7 | Cc1noc(NC(=O)N2CCC3(CC2)CC(c2cccc(-c4ccc(F)cc4)c2)CO3)c1C (racemic) [Example 54, (3RS)-N-(3,4-dimethylisoxazol-5-yl)-3-(4′-fluorobiphenyl-3-yl)-1-oxa-8-azaspiro[4.5]decane-8-carboxamide] | 2040 | 1110
8 | Cc1noc(NC(=O)N2CCC3(CC2)CC(c2cccc(-c4ccc(Cl)cc4)c2)CO3)c1C (racemic) [Example 55, (3RS)-3-(4′-chlorobiphenyl-3-yl)-N-(3,4-dimethylisoxazol-5-yl)-1-oxa-8-azaspiro[4.5]decane-8-carboxamide] | 2070 | 1160
9 | Cc1noc(NC(=O)N2CCC3(CC2)CC(c2cccc(-c4ccc(OC(F)(F)F)cc4)c2)CO3)c1C (racemic) [Example 56, (3RS)-N-(3,4-dimethylisoxazol-5-yl)-3-[4′-(trifluoromethoxy)biphenyl-3-yl]-1-oxa-8-azaspiro[4.5]decane-8-carboxamide] | 1880 | 1140
10 | Cc1noc(NC(=O)N2CCC3(CC2)CC(c2cccc(C(F)(F)F)c2)CO3)c1C (racemic) [Example 65, (3RS)—N-(3,4-dimethylisoxazol-5-yl)-3-[3-(trifluoromethyl)phenyl]-1-oxa-8-azaspiro[4.5]decane-8-carboxamide] | 1100 | 2630
11 | Cc1noc(NC(=O)N2CCC3(CC2)CC(c2noc(-c4ccc(OC(F)(F)F)cc4)n2)CO3)c1C (racemic) [Example 71, (3RS)—N-(3,4-dimethylisoxazol-5-yl)-3-{5-[4-(trifluoromethoxy)phenyl]-1,2,4-oxadiazol-3-yl}-1-oxa-8-azaspiro[4.5]decane-8-carboxamide] | 2610 | 1020
